For the experiment, the target named is α-melanocyte-stimulating hormone receptor (hMC4R) (Homo sapiens (Human), UniProt P32245). In words: In vitro binding affinity assay using hMC4R (radioligand competition binding, [125I]-(Nle4, D-Phe7)-α-MSH). The following applies: geometric mean, read-out: Ki (nM) geometric. The protocol:
The binding affinity of test compounds at the α-melanocyte-stimulating hormone receptor (hMC4R) was assessed using a radioligand competition binding assay. Recombinant Chinese hamster ovaries (CHO) cells stably expressing hMC4R (PerkinElmer #ES-191-C) were used for competitive binding. hMC4R membranes were grown in Dulbecco's Modified Essential Medium and Ham's F-12 Medium (DMEM/F12), 10% heat inactivated fetal bovine serum (FBS), 0.4 mg/mL Geneticin and 2 mM L-glutamine. Cell membranes were bulked and frozen until the assay was performed.
Compounds were solubilized in 100% dimethyl sulfoxide (DMSO) to a concentration of 30 mM. A 10-point intermediate dilution series using half log dilutions was created in 100% DMSO with a top concentration of 0.03 mM. The serially diluted compounds were spotted as 1 μL/well, in 96-well Costar 3363 plates. The final compound range in the assay was 300 nM to 0.01 nM with a final DMSO concentration of 1%. Control wells, containing 1 μL of 2 mM ([…]) alpha-melanocyte stimulating hormone (α-MSH-Tocris #2584) was added to the non-specific binding wells and 1 μL 100% DMSO for the total binding control wells. […] The exact concentration of radioligand used for each experiment was determined by liquid scintillation counting and adjusted if necessary.
Frozen hMC4R cell membranes were thawed and Dounce homogenized. Homogenates were resuspended in assay buffer to a concentration of 2 μg per well. […] The plates were incubated for 2 hours at room temperature. Assay samples were then rapidly filtered through Unifilter-96 GF/B PEI coated filter plates using a filter plate harvester (PerkinElmer) and rinsed with ice-cold wash buffer [25 mM (4-(2-hydroxyethyl)-1-piperazineethanesulfonic acid (HEPES), 1 mM MgCl2, 2.5 mM CaCl2, and 500 mM NaCl]. Filter plates were dried overnight at room temperature. Plates were then bottom-sealed prior to the addition of 50 μL/well Ultima Gold XR scintillation fluid (PerkinElmer 6013111). Plates were then top-sealed, incubated for 60 minutes at room temperature and then the amount of radioactivity present was determined by liquid scintillation counting on a Microbeta Trilux (PerkinElmer #2450-0060).
The raw data (expressed as counts per minute) were analyzed using ActivityBase (IDBS Data Management Software). […] Equilibrium dissociation constant for inhibitor of ligand and receptor interaction (Ki) values were then calculated from the IC50 values using the Cheng-Prusoff equation: Ki=IC50/(1+([L]/Kd)), where [L] is the concentration of the radioligand used in the experiment and Kd is the affinity of the radioligand (determined in separate saturation experiments).
For orientation: Displacement assays read how much labelled ligand stays bound in the presence of the test substance.

Among the data in patent US20250084084A1, “Crystalline form of (2R)-2-(5-fluoro-2-methoxypyridin-4-yl)-1-[(2S)-7-methyl-6-(pyrimidin-2-yl)-3,4-dihydro-1H-spiro[1,8-naphthyridine-2,3-pyrrolidin]-1-yl]propan-1-one” (Pfizer Inc., priority 2020, published 2025) are Ki values, retold here.

SMILES strings stand for the structures.

Chain of α-melanocyte-stimulating hormone receptor (hMC4R) (P32245 whole entry): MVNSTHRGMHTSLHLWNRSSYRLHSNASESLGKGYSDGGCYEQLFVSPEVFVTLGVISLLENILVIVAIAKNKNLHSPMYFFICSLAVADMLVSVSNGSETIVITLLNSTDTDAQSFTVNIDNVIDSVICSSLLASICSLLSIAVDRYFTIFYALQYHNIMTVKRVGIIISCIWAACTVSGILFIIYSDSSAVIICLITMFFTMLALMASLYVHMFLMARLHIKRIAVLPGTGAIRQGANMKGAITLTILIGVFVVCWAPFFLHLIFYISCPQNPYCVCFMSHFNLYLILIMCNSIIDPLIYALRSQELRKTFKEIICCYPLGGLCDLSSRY

Broadly, the Ki is the equilibrium dissociation constant of an inhibitor or competing ligand from its target. As for `Cc1nc2c(cc1-c1nc(C(F)F)n(C)n1)CC[C@@]1(CCN(C(=O)Cc3ccc(F)c(F)c3)C1)N2` [Example 121, 1-{(2S)-6-[5-(difluoromethyl)-1-methyl-1H-1,2,4-triazol-3-yl]-7-methyl-3,4-dihydro-1H-spiro[1,8-naphthyridine-2,3′-pyrrolidin]-1′-yl}-2-(3,4-difluorophenyl)ethan-1-one], the Ki was determined as 0.49 nM. On to `COc1cc([C@@H](C)C(=O)N2CC[C@@]3(CCc4cc(-c5nc(C(F)F)n(C)n5)c(C)nc4N3)C2)c(F)cn1` [Example 122, (2R)-1-{(2S)-6-[5-(difluoromethyl)-1-methyl-1H-1,2,4-triazol-3-yl]-7-methyl-3,4-dihydro-1H-spiro[1,8-naphthyridine-2,3′-pyrrolidin]-1′-yl}-2-(5-fluoro-2-methoxypyridin-4-yl)propan-1-one], for which the Ki came out at 0.49 nM.

In the case of `COc1cc([C@@H](C)C(=O)N2CC[C@@]3(CCc4cc(C5CCOCC5)c(C)nc4N3)C2)c(F)cn1` [Example 131, (2R)-2-(5-fluoro-2-methoxypyridin-4-yl)-1-[(2S)-7-methyl-6-(oxan-4-yl)-3,4-dihydro-1H-spiro[1,8-naphthyridine-2,3′-pyrrolidin]-1′-yl]propan-1-one], the Ki stood at 5.8 nM. For `COc1cc([C@@H](C)C(=O)N2CC[C@@]3(CCc4cc(-c5cn(C(F)F)c(C)n5)c(C)nc4N3)C2)c(F)cn1` [Example 138, (2R)-1-{(2S)-6-[1-(difluoromethyl)-2-methyl-1H-imidazol-4-yl]-7-methyl-3,4-dihydro-1H-spiro[1,8-naphthyridine-2,3′-pyrrolidin]-1′-yl}-2-(5-fluoro-2-methoxypyridin-4-yl)propan-1-one], the Ki came to 0.9 nM. Consider `COc1cc([C@@H](C)C(=O)N2CC[C@@]3(CCc4cc(-c5ccc(F)cn5)c(C)nc4N3)C2)c(F)cn1` [Example 139, (2R)-2-(5-fluoro-2-methoxypyridin-4-yl)-1-[(2S)-6-(5-fluoropyridin-2-yl)-7-methyl-3,4-dihydro-1H-spiro[1,8-naphthyridine-2,3′-pyrrolidin]-1′-yl]propan-1-one], for which the Ki was 13 nM. In the case of `COc1cc([C@@H](C)C(=O)N2CC[C@@]3(CCc4cc(-c5ccccn5)c(C)nc4N3)C2)c(F)cn1` [Example 140, (2R)-2-(5-fluoro-2-methoxypyridin-4-yl)-1-[(2S)-7-methyl-6-(pyridin-2-yl)-3,4-dihydro-1H-spiro[1,8-naphthyridine-2,3′-pyrrolidin]-1′-yl]propan-1-one], the Ki turned out to be 6.3 nM.

Consider `COc1cc([C@@H](C)C(=O)N2CC[C@@]3(CCc4cc(-c5ccnnc5)c(C)nc4N3)C2)c(F)cn1` [Example 141, (2R)-2-(5-fluoro-2-methoxypyridin-4-yl)-1-[(2S)-7-methyl-6-(pyridazin-4-yl)-3,4-dihydro-1H-spiro[1,8-naphthyridine-2,3′-pyrrolidin]-1′-yl]propan-1-one], for which the Ki turned out to be 14 nM. For the compound `COc1cc([C@@H](C)C(=O)N2CC[C@@]3(CCc4cc(-c5nccc(C(F)(F)F)n5)c(C)nc4N3)C2)c(F)cn1` [Example 143, (2R)-2-(5-fluoro-2-methoxypyridin-4-yl)-1-{(2S)-7-methyl-6-[4-(trifluoromethyl)pyrimidin-2-yl]-3,4-dihydro-1H-spiro[1,8-naphthyridine-2,3′-pyrrolidin]-1′-yl}propan-1-one], the Ki came to 1.3 nM. As to `COc1cc([C@@H](C)C(=O)N2CC[C@@]3(CCc4cc(-c5ncc(Cl)cn5)c(C)nc4N3)C2)c(F)cn1` [Example 144, (2R)-1-[(2S)-6-(5-chloropyrimidin-2-yl)-7-methyl-3,4-dihydro-1H-spiro[1,8-naphthyridine-2,3′-pyrrolidin]-1′-yl]-2-(5-fluoro-2-methoxypyridin-4-yl)propan-1-one], the Ki amounted to 2 nM. As for `COc1cc([C@@H](C)C(=O)N2CC[C@@]3(CCc4cc(-c5ncc(C(F)(F)F)cn5)c(C)nc4N3)C2)c(F)cn1` [Example 145, (2R)-2-(5-fluoro-2-methoxypyridin-4-yl)-1-{(2S)-7-methyl-6-[5-(trifluoromethyl)pyrimidin-2-yl]-3,4-dihydro-1H-spiro[1,8-naphthyridine-2,3′-pyrrolidin]-1′-yl}propan-1-one], the Ki turned out to be 8.7 nM. With `COc1cc([C@@H](C)C(=O)N2CC[C@@]3(CCc4cc(-c5ncc(F)cn5)c(C)nc4N3)C2)c(F)cn1` [Example 146, (2R)-2-(5-fluoro-2-methoxypyridin-4-yl)-1-[(2S)-6-(5-fluoropyrimidin-2-yl)-7-methyl-3,4-dihydro-1H-spiro[1,8-naphthyridine-2,3′-pyrrolidin]-1′-yl]propan-1-one], the Ki turned out to be 1.2 nM. On to `COc1cc([C@@H](C)C(=O)N2CC[C@@]3(CCc4cc(-c5nc6n(n5)CCC6(F)F)c(C)nc4N3)C2)c(F)cn1` [Example 147, (2R)-1-[(2S)-6-(7,7-difluoro-6,7-dihydro-5H-pyrrolo[12-b][1,2,4]triazol-2-yl)-7-methyl-3,4-dihydro-1H-spiro[1,8-naphthyridine-2,3′-pyrrolidin]-1′-yl]-2-(5-fluoro-2-methoxypyridin-4-yl)propan-1-one], for which the Ki came to 0.62 nM. Regarding `COc1cc([C@@H](C)C(=O)N2CC[C@@]3(CCc4cc(-c5cnsc5)c(C)nc4N3)C2)c(F)cn1` [Example 150, (2R)-2-(5-fluoro-2-methoxypyridin-4-yl)-1-[(2S)-7-methyl-6-(1,2-thiazol-4-yl)-3,4-dihydro-1H-spiro[1,8-naphthyridine-2,3′-pyrrolidin]-1′-yl]propan-1-one], the Ki is 3.9 nM.

Consider `COc1cc([C@@H](C)C(=O)N2CC[C@@]3(CCc4cc(-c5cnc(C)nc5)c(C)nc4N3)C2)c(F)cn1` [Example 151, (2R)-2-(5-fluoro-2-methoxypyridin-4-yl)-1-[(2S)-7-methyl-6-(2-methylpyrimidin-5-yl)-3,4-dihydro-1H-spiro[1,8-naphthyridine-2,3′-pyrrolidin]-1′-yl]propan-1-one], for which the Ki worked out at 23 nM. With `COc1cc([C@@H](C)C(=O)N2CC[C@@]3(CCc4cc(-c5cccc(-c6nnc(C)o6)n5)c(C)nc4N3)C2)c(F)cn1` [Example 152, (2R)-2-(5-fluoro-2-methoxypyridin-4-yl)-1-{(2S)-7-methyl-6-[6-(5-methyl-1,3,4-oxadiazol-2-yl)pyridin-2-yl]-3,4-dihydro-1H-spiro[1,8-naphthyridine-2,3′-pyrrolidin]-1′-yl}propan-1-one] the figure was 2.5 nM; with `COc1cc([C@@H](C)C(=O)N2CC[C@@]3(CCc4cc(-c5cnc(C)s5)c(C)nc4N3)C2)c(F)cn1` [Example 153, (2R)-2-(5-fluoro-2-methoxypyridin-4-yl)-1-[(2S)-7-methyl-6-(2-methyl-1,3-thiazol-5-yl)-3,4-dihydro-1H-spiro[1,8-naphthyridine-2,3′-pyrrolidin]-1′-yl]propan-1-one], 3.3 nM.

With `COc1cc([C@@H](C)C(=O)N2CC[C@@]3(CCc4cc(-c5cnn6cccnc56)c(C)nc4N3)C2)c(F)cn1` [Example 154, (2R)-2-(5-fluoro-2-methoxypyridin-4-yl)-1-[(2S)-7-methyl-6-(pyrazolo[1,5-a]pyrimidin-3-yl)-3,4-dihydro-1H-spiro[1,8-naphthyridine-2,3′-pyrrolidin]-1′-yl]propan-1-one], the Ki was found to be 0.72 nM. On to `COc1cc([C@@H](C)C(=O)N2CC[C@@]3(CCc4cc(-c5ccc(C(F)(F)F)cn5)c(C)nc4N3)C2)c(F)cn1` [Example 155, (2R)-2-(5-fluoro-2-methoxypyridin-4-yl)-1-{(2S)-7-methyl-6-[5-(trifluoromethyl)pyridin-2-yl]-3,4-dihydro-1H-spiro[1,8-naphthyridine-2,3′-pyrrolidin]-1′-yl}propan-1-one], for which the Ki is 27 nM. Regarding `COc1cc([C@@H](C)C(=O)N2CC[C@@]3(CCc4cc(-c5cncc(C)n5)c(C)nc4N3)C2)c(F)cn1` [Example 156, (2R)-2-(5-fluoro-2-methoxypyridin-4-yl)-1-[(2S)-7-methyl-6-(6-methylpyrazin-2-yl)-3,4-dihydro-1H-spiro[1,8-naphthyridine-2,3′-pyrrolidin]-1′-yl]propan-1-one], the Ki came out at 5.9 nM. With `COc1cc([C@@H](C)C(=O)N2CC[C@@]3(CCc4cc(-c5nc(C(C)(C)C)cs5)c(C)nc4N3)C2)c(F)cn1` [Example 157, (2R)-1-[(2S)-6-(4-tert-butyl-1,3-thiazol-2-yl)-7-methyl-3,4-dihydro-1H-spiro[1,8-naphthyridine-2,3′-pyrrolidin]-1′-yl]-2-(5-fluoro-2-methoxypyridin-4-yl)propan-1-one] the figure was 15 nM.
